Measurements: article PMC7355684 (Pharmaceutics, 2020)
Where a SMILES comes first, the peptide text is derived from it. The star is where a group is joined. Daunorubicin(13-NOCH2CO) = COc1cccc2c1C(=O)c1c(O)c3c(c(O)c1C2=O)C[C@@](O)(C(C)=NOCC(=O)*)C[C@@H]3O[C@H]1C[C@H](N)[C@H](O)[C@H](C)O1

Key:
[1] = in vivo; cited from earlier work
Text: Daunomycin (Dau) was applied as a payload. It was indicated in our previous research that Dau can be attached to peptides via oxime linkage easily with good yields. […] It might be because of the lower DNA binding affinity of the Dau containing metabolite compared to Dau. However, the oxime linked conjugates are stable in the circulation and no loss of Dau can be observed before reaching the target cells.

PANC-1 cells [2] = experiment: Flow cytometric cell surface binding and internalization; format: cell-based, human; settings: 10^-5 M, flow cytometry, mean of 2 parallels ± SD
Description: Cell surface binding and internalization of the conjugates were performed by flow cytometry (FACS-Calibur, Becton Dickinson, San Jose, CA, USA) based on the detection of the fluorescence activity of Dau (λex = 488 nm, λem = 585 nm) linked to the peptides. Studies of binding and uptake were performed on PANC-1 cells.
Cells were seeded (2.5 × 10^5 cells/mL, 900 μL/well) on 12-well plates, 24 h prior to the treatment with conjugates and free Dau. To distinguish the cell surface binding and internalization of conjugates, the cells were treated with the conjugate solutions at a final concentration of 10^−5 M at two temperatures (37 °C and 4 °C) in parallel. After the incubation period of 30 min, cells were washed with PBS and were removed from the plate using TrypLE (Thermo Fisher Scientific, Waltham, MA, USA) cell-dissociation reagent, thus avoiding cell surface protein degradation. […] After the centrifugation of the cell suspension, the cell pellets were resuspended in PBS (400 μL/tube) and the samples were measured by a flow cytometer.
To determine the fluorescence intensity and to evaluate the results CellQuest Pro (Becton Dickinson) and Flowing2.5.1. […] The instrument determines the relative fluorescence intensity of Dau built in the conjugates as geometric mean channel (GeoMean) value. […]

PANC-1 cells [3] = experiment: cells; format: cell-based, human
Description: This measurement is based on the registration of electrical resistance (impedance, Z) in alternating current (AC) field. The living cells transplanted to the gold measuring electrodes are physically insulated by phospholipid bilayer that covers them. This instrumentally measurable property changes (decreases) in response to cellular cytotoxic agents. Our measurements were performed on xCELLigence single plate (ACEA Biosciences, San Diego, CA, USA) dedicated for impedimetric analysis of cellular samples at 37 °C and 5% CO2.
During the initial phase of the experiments—the baseline recording—a special 96-well cell culture plate, E-plate (ACEA Biosciences), equipped with measuring electrodes, was pretreated with freshly prepared cell culture medium (for 60 min; sampling frequency: 1 min). Subsequently, PANC-1 cells were plated at a cell density of 10^4 cells/well. During the 24 h incubation, the cells evenly covered the electrodes at the bottom of the wells of the E-plate. The resulting confluent cell cultures were then treated with the test substances at the following final concentrations: 10^−6, 10^−5, 10^−4 M. Total treatment duration was 72 h and the sampling rate was 1 min (0–24 h); and then 15 min (48–72 h). In our measurements, three replicates were used, the control was the drug-free medium. […] The CI results were analyzed with xCELLigence RTCA 2.0 software and Origin Pro 8.0 software.

PANC-1 cells [4] = experiment: Colorimetric (alamarBlue) cytotoxicity on PANC-1; format: cell-based; settings: Homo sapiens, concentration needed to decrease the cell viability by 50%, read-out: IC50 (colorimetry)
Description: (§1) The protocol for the alamarBlue-assay was similar to the method which was published earlier, with some minor modifications. Briefly, the cell seeding occurred on 96-well cell culture plates (Sarstedt AG, Nümbrecht, Germany) at 10^4 cells/well concentration. After a 24 h long culturing period, the treatment was carried out with the conjugates at 10^−4, 10^−5 and 10^−6 M final concentrations for 24, 48 and 72 h. In the next steps, the alamarBlue reagent (0.15 mg/mL, Sigma-Aldrich) dissolved in phosphate-buffered saline (PBS; pH = 7.2), was added to the wells. After 6 h incubation with the reagent, the fluorescence intensity of the samples was obtained by an LS-50B Luminescence Spectrometer (Perkin Elmer Ltd., Buckinghamshire, UK) or a Fluoroskan^TM FL Microplate Fluorometer and Luminometer (Thermo Scientific, Waltham, MA, USA) by using the following settings: λex = 560 nm and λem = 590 nm.
Three parallels were performed per treatment group. […] Fluorescence intensities of the samples treated with various concentrations of conjugates were expressed as a percentage of the fluorescence of control.
To confirm that the different methods can be used to compare the effects of conjugates on the different model cells, the cytotoxicity of Dau was measured by both impedimetric and colorimetric methods on PANC-1 cells.

[5] = tested on: s.c. PANC-1 human pancreatic carcinoma; experiment: Subcutaneous PANC-1 human pancreatic cancer mouse model; format: in vivo, SCID mice
Description: For establishing pancreatic tumor in experimental animals, PANC-1 cells were used, which were cultured in RPMI 1640 medium (Lonza), supplemented with 10% heat-inactivated FBS (Biosera, Nuaille, France), and 1% penicillin/streptomycin (Lonza). They were cultured in sterile T175 flasks (Sarstedt AG) with a ventilation cap at 37 °C in a humidified atmosphere with 5% CO2.
Pancreatic cancer (PANC-1) cells were injected into SCID male mice (22–34 g) subcutaneously (s.c.), 3 × 10^6 cells per animal in 200 µL M199 (Sigma-Aldrich) per animal. The (i.p.) administration of treatment started 10 days after cells inoculation when the average tumor volume was 36 mm^3. Four groups with 7 animals per group were established and treated. The doses and schedule were as follows: control group was treated with sterile water used for the solubilization of Dau and the conjugates, while animals in the group administered with free Dau were treated on days 10, 19 and 24 after cell inoculation with a dose of 1 mg/kg. Mice administered with the conjugate 4 were separated in two groups and treated either with a dose of 10 mg/kg Dau-content (21.6 mg/kg conjugate) or with a dose of 2 mg/kg Dau-content (4.3 mg/kg conjugate) on days 10, 13, 19, 21, 24, 28, 31, 34, 39, 42, 46, 49, 53, 56, 60, 63, 67 and 70 after cells inoculation. Animal weight and tumor volumes were measured initially when the treatment started and at periodic intervals according to the treatment schedule. A digital caliper was used to measure the longest (a) and the shortest diameter (b) of a given tumor. The tumor volume was calculated using the formula V = ab^2 × π/6, where a and b represent the measured parameters (length and width). The experiment was terminated on day 74 after cells inoculation (day 65 of treatment). Animals treated with free Dau had to be terminated after 3 treatments on day 28 after cells inoculation (day 19 of treatment) due to significant weight-loss. Animals were sacrificed by cervical dislocation; primary tumors and livers were harvested and weighted.

Colo-205 cells = format: cell-based, human; settings: 1e-5 M
Description: (§2) EBC-1 and Colo-205 model cells have weak/negligible adherent properties, and A2058 cells could not produce constant cell index values. Therefore, a colorimetric assay (alamarBlue-assay) was chosen instead of the xCELLigence system to investigate the viability of these model cells treated with the conjugates. Due to the growth characteristics of NHDF cells, alamarBlue-assay was performed also on this cell line.
as §1
(§3) Three parallels were performed per treatment group. In the case of controls, an equivalent volume of cell culture media was added to the cell. Fluorescence intensities of the samples treated with various concentrations of conjugates were expressed as a percentage of the fluorescence of control.

A2058 cells = format: cell-based, human; settings: 1e-5 M
Description: as §2, §1, §3

EBC-1 cells = format: cell-based, human; settings: 1e-5 M
Description: as §2, §1, §3

[6] = Acute and chronic toxicity in healthy mice; format: in vivo; settings: healthy Balb/c male mice, 3 per group; i.p.; acute 3.125, 6.25, 12.5, 25 mg/kg Dau-content single; chronic 10 mg/kg Dau-content on days 1, 3, 7, 9, 11; 14 days
Description: Prior to the determination of in vivo antitumor activity, the acute and chronic toxicity studies of conjugate 4 (Dau=Aoa-GFLG-K(Dau=Aoa)-SKAAKN-OH) were investigated. Healthy Balb/c male mice (3 animals in each group with 29–33 g body weight) were used for these experiments. The conjugate was dissolved in sterile water for injection (Pharmamagist Kft., Budapest, Hungary) and injected in a volume of 0.1 mL/10 g body weight using the appropriate concentrations. In acute toxicity study, intraperitoneal (i.p.) administration of the conjugate 4 was carried out in 4 different doses: 3.125, 6.25, 12.5 and 25 mg/kg Dau-content. In chronic toxicity study, mice were treated with a dose of 10 mg/kg Dau-content of the conjugate on days 1, 3, 7, 9 and 11 (5 treatments). The toxicity was evaluated on the basis of life span, behavior and looking of the mice, as well as body weight. These parameters were followed for 14 days.

SMILES | Maximum tolerated dose (MTD) [1] [mg/kg] | Relative fluorescence intensity (GeoMean values), Cellular uptake (PANC-1 cells [2]; 30 min, GeoMean at 37 °C minus GeoMean at 4 °C) | Relative fluorescence intensity (GeoMean values), Binding (PANC-1 cells [2]; 30 min at 4 °C, Dau fluorescence, corrected for autofluorescence) | IC50 (PANC-1 cells [3]; Homo sapiens, PANC-1, read-out: IC50 (impedimetry)) [nM] | IC50 (PANC-1 cells [4]) [nM] | Animal weight decrease compared to start of the experiment ([5]; free Dau 1 mg/kg i.p., 3 treatments, day 28 after cell inoculation) [%] | Decrease of average liver/body weight ratio vs control ([5]; free Dau 1 mg/kg i.p., three times, day 28 after cell inoculation) [%] | Inhibition of tumor growth (tumor volume) ([5]; free Dau 1 mg/kg i.p., day 28 after cell inoculation (day 19 of treatment)) [%] | Liver / body weight (printed in Figure 9D, %) ([5]; free Dau 1 mg/kg, three treatments, day 28, relative to control) [%] | Viability (%) at 10-5 M concentration, after 72 h incubation, Colo-205 (Colo-205 cells) [%] | Viability (%) at 10-5 M concentration, after 72 h incubation, A2058 (A2058 cells) [%] | Viability (%) at 10-5 M concentration, after 72 h incubation, EBC-1 (EBC-1 cells) [%] | Acute and chronic toxicity (body weight, general looking, behavior) [6] | Cell viability at 10^−6 M (PANC-1 cells [3]; 24 h, 1e-6 M) | Viability after 24 h (PANC-1 cells [3]; 24 h, 1e-5 M) [%]
COc1cccc2c1C(=O)c1c(O)c3c(c(O)c1C2=O)C[C@@](O)(C(C)=O)C[C@@H]3O[C@H]1C[C@H](N)[C@H](O)[C@H](C)O1 [Dau, Daunomycin] | 1 to 2 | 702.048 ± 84.340 | 72.057 ± 3.907 | 189 | 179 | 21 | 29.1 | 35.7 | 70.9 | – | – | – | – | – | –
COc1cccc2c1C(=O)c1c(O)c3c(c(O)c1C2=O)C[C@@](O)(C(C)=NOCC(=O)NCCCC[C@H](NC(=O)CNC(=O)[C@H](CC(C)C)NC(=O)[C@H](Cc1ccccc1)NC(=O)CNC(=O)CON=C(C)[C@]1(O)Cc2c(O)c4c(c(O)c2[C@@H](O[C@H]2C[C@H](N)[C@H](O)[C@H](C)O2)C1)C(=O)c1c(OC)cccc1C4=O)C(=O)N[C@@H](CO)C(=O)N[C@@H](CCCCN)C(=O)N[C@@H](C)C(=O)N[C@@H](C)C(=O)N[C@@H](CCCCN)C(=O)N[C@@H](CC(N)=O)C(=O)O)C[C@@H]3O[C@H]1C[C@H](N)[C@H](O)[C@H](C)O1 [conjugate 4, Dau=Aoa-GFLG-K(Dau=Aoa)SKAAKN-OH] ({Daunorubicin(13-NOCH2CO)}-GFLGK(Daunorubicin(13-NOCH2CO))SKAAKN-OH) | – | – | – | – | – | – | – | – | – | 19.8 ± 0.5 | 29.8 ± 4.5 | 32.2 ± 4.2 | not toxic at the applied concentrations | higher than 100% | 91
